This test has as its target Histone acetyltransferase KAT6A (UniProt Q92794). Briefly: KAT6A Biochemical Assay. The source says:
TR-FRET is homogeneous proximity assay where Europium-labelled anti-acetyl lysine antibody binds to the acetylated substrate labelled with biotin which in turn binds to streptavidin labelled APC fluorescence acceptor. Europium can transfer energy to APC in the complex and the interaction of two dye-labelled binding partners is detected by the energy transfer between a donor and an acceptor dye, and the subsequent light emission by the acceptor dye. KAT6A transfer an acetyl group from acetyl CoA to lysine amino acids of histones/target proteins. Typically, 5 μL of human-KAT6A (MYST domain 507-778 aa) in assay buffer (100 mM Tris HCl (pH 7.8), 15 mM NaCl, 1 mM EDTA, 0.01% Tween-20, 0.02% BSA, 1 mM DTT) is added to 384-well plate containing 5 μL of selected test compound in final 1% DMSO, serially diluted in 1:3 in an 8-10-point titration. The selected compound of the present invention and enzyme are incubated for 30 min at room temperature. Next, 5 μL of substrate mix containing histone H4 peptide and acetyl-CoA in assay buffer is added to the plate. The final concentrations of H4 peptide and acetyl-CoA are 200 nM and 600 nM respectively. […] The plate is further incubated for 45 min at room temperature and is read in TR-FRET mode (Ex:340 nm; Em: 615 nm and 665 nm) on a plate reader.

Histone acetyltransferase KAT6A, sequence (Q92794 whole entry, the tested form may be a part): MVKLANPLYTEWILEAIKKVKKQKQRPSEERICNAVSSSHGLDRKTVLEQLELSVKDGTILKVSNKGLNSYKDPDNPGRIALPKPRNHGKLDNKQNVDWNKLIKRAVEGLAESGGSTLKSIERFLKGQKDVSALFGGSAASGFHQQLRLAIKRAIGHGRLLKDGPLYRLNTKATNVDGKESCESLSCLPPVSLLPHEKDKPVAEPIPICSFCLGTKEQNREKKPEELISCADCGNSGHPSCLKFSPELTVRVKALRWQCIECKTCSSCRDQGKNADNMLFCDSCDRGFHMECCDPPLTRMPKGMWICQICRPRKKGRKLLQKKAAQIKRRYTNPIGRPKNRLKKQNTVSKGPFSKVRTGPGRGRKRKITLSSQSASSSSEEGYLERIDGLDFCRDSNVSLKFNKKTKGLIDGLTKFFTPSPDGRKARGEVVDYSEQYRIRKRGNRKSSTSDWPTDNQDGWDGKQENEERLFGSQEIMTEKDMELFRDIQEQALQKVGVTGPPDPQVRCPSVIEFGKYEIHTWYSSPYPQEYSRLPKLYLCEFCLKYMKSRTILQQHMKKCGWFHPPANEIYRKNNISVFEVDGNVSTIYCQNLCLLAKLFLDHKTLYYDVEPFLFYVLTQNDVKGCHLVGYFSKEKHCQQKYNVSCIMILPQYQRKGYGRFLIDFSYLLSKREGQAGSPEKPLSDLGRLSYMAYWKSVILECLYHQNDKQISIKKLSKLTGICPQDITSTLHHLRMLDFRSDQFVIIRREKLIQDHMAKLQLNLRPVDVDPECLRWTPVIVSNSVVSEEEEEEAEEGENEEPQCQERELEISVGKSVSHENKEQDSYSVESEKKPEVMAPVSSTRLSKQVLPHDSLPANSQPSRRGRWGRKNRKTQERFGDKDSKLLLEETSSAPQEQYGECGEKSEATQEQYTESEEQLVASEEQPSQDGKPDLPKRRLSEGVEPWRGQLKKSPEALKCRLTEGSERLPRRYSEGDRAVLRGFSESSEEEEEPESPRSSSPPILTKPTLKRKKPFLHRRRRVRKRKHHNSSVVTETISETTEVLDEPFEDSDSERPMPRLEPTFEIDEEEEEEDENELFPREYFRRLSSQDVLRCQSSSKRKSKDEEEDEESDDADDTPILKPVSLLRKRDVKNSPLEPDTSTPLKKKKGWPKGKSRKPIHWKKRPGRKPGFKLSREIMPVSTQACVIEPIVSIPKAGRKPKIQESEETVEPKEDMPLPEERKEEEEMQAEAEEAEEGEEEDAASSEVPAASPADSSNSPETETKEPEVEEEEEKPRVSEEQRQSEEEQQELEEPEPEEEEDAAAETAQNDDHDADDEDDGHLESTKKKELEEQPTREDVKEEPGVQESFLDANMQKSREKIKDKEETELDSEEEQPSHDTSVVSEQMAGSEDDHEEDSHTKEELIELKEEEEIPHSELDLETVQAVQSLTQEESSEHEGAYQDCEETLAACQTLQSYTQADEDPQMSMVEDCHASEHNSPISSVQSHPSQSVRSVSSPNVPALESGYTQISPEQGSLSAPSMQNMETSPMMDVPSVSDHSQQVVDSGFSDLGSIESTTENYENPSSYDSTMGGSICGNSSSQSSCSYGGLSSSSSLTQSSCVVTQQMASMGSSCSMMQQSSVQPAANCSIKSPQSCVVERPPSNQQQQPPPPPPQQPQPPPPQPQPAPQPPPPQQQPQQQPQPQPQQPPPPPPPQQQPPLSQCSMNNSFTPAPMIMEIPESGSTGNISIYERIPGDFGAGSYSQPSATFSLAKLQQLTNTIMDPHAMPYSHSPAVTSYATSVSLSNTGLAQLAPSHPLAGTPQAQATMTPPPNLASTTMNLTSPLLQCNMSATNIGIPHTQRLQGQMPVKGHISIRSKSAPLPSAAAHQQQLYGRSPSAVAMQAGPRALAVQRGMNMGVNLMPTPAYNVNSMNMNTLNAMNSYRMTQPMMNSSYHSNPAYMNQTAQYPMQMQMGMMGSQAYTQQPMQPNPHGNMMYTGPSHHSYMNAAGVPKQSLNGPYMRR

On to `COc1cccc(OC)c1S(=O)(=O)Nc1noc2cc(-c3cscc3C)c3c(c12)OCC3` [US20250059204, Compound 14], for which the IC50 was 156 nM.

On to `COc1cccc(OC)c1S(=O)(=O)Nc1noc2cc(Cn3cccn3)c3c(c12)OC(C)(C)C3` [US20250059204, Compound 56], for which half-maximal inhibition (IC50) was put at 43 nM.

What is called IC50 is the midpoint of a concentration-inhibition curve. High values mean weaker potency, low ones greater potency.

These data come from BindingDB's records for patent US20250059204 (Aurigene Oncology, 2025).
